# Columns and labels:
# Format in all cases: cell-based, human
# [1] = test system: CD43+ cells collected from H1 hESCs; assay: T-cell differentiation of day 9 cultures on OP9-DLL4; details: CD43+ cells from day 9 cultures on the matrix, OP9-DLL4 coculture
# Experimental: An OP9 cell line (OP9-DLL4) constitutively expressing human delta-like ligand 4 (DLL4) was established by our lab using lentivirus and was maintained similarly to OP9. After human pluripotent stem cells were differentiated for 9 days, the floating cells were collected, strained through a 70 μm cell strainer (BD Biosciences) and washed. Then, they were resuspended in T-cell differentiation media consisting of α-MEM (Gibco) supplemented with 20% FBS (Hyclone) supplemented with IL7 (5 ng/ml), Flt3L (5 ng/ml) and SCF ([…]). Then, they were plated on an OP9-DLL4 and cultured at 37° C. and 5% CO2. After 4 days, the cells were harvested using collagenase IV (Gibco) solution (1 mg/ml in DMEM/F12, Gibco) and 1× TrypLE (Invitrogen), and passaged onto a fresh layer of OP9-DLL4. After 3 days, the cells are passaged again. Subsequent passages are conducted every 7 days up to 4 weeks, after which the floating cells are collected for flow analysis and genomic DNA extraction for TCR rearrangement assay.
# hESCs [2] = assay: hPSC hematoendothelial differentiation on ColIV vs TenC in chemically defined conditions, flow cytometry
# Experimental: (§1) Human pluripotent stem cells were detached from vitronectin or matrigel when they reached 80% confluency using 1× TrypLE (Life Technologies) and plated at an optimized density ranging from 5000 cells/cm^2 to 15,000 cells/cm^2 depending on the cell line onto 6-well plates coated with 0.5 μg/cm^2 of ColIV (Sigma-Aldrich) or 0.5 μg/cm^2 Tenascin-C (Millipore) in E8 media supplemented with 10 μM Rho Kinase inhibitor (Tocris Y-27632). After 24 hours (day 0), the media was changed to IF9S media supplemented with 50 ng/ml BMP4 (Peprotech), 15 ng/ml Activin A (Peprotech), 50 ng/ml FGF2 (Miltenyi Biotech), 2 mM LiCl (Sigma), and on occasion, 1 μM Rho Kinase inhibitor to increase cell viability. On day 2, the media was changed to IF9S media supplemented with 50 ng/ml FGF2 and 50 ng/ml VEGF, and 10 μM SB-431542 (Tocris) where mentioned. On day 4, the media was changed to IF9S media supplemented with 50 ng/ml FGF2, VEGF, TPO, SCF, IL-6, and 10 ng/ml IL-3. On day 6, additional IF9S media supplemented with the same 6 factors were added to the cultures without aspirating the old media (Table 3 Table 3). IF9S (IMDM/F12 with 9 supplements) was made in-house with the following: 50% IMDM 50% F12 (Life Technologies) supplemented with 64 mg/L L-ascorbic Acid 2-Phosphate Mg2+ salt (Sigma-Aldrich), 40 ul/L monothioglycerol (Sigma-Aldrich), 8.4 μg/L additional sodium selenite (Sigma-Aldrich), 10 mg/L polyvinyl alcohol (Sigma-Alderich), 1× glutamax (Life Technologies), 1× non-essential amino acids (Life Technologies), 0.1× chemically defined lipid concentrate (Life Technologies), 10.6 mg/L Holo-Transferrin (Sigma-Aldrich), and 20 mg/L Insulin (Sigma-Aldrich) (Table 2). Differentiation was conducted in hypoxic condition from day 0 to day 5, and transferred to normoxic condition from day 6 to day 9 (FIG. 1). The 1× TrypLE was used to dissociate and collect cells for analysis.
# Flow Cytometry was conducted using the using a FACSCalibur flow cytometer and following antibodies: CD31-FITC (clone WM59), CD34-FITC (8G12), CD41a-FITC/APC (clone HIPS), CD43-FITC/PE/APC (clone 1G10), CD45-APC (clone HI30), CD73-FITC/PE (clone AD2), CD144-FITC/PE/AlexaFluor647 (clone 55-7H1), CD235a-FITC/PE/APC (clone GA-R2), KDR-PE/AlexaFluor647 (clone 89106), PDGFRα-PE (clone aR1) (BD Biosciences), TRA-1-85-FITC/PE (clone TRA-1-85), and APLNR-APC (clone 72133) (R&D Systems). Sorting was conducted on a FACS Aria, as described previously 46. The purity of isolated populations was 92-95%.
# hESCs [3] = assay: Hematopoietic CFC assay; details: day 8, TenC compared with ColIV
# Experimental: Hematopoietic CFC were detected using serum-containing H4436 Methocult™ supplemented with human recombinant SCF, G-CSF, GM-CSF, IL-3, IL-6, and EPO (Stem Cell Technologies). Hematopoietic potential of AHPs was evaluated using serum-free SF H4236 methocult with added FGF2 (20 ng/ml), SCF (20 ng/mL), IL3 (10 ng/mL), IL6 (10 ng/mL), and EPO (2 U/mL) (Stem Cell Technologies) as previously described^6. 1000-10000 differentiated cells were plated into the CFC medium and the colonies were scored after 14 days of culture.
# hESCs [4] = assay: Mesenchymo- (MB) and hemangioblast (HB) colony assay; details: day 2 and day 3 cultures; TenC compared with ColIV
# Experimental: MB and HB were detected using serum-free CFC medium supplemented with FGF2 assay as previously described^11. Day 2 or 3 cultures were dissociated and prepared in a single-cell suspension using 1× TrypLE (Life Technologies) and 5,000 cells of the total culture were plated into the CFC media. MB and HB colonies were scored 12 days after plating the single-cell suspension.
# H1 hESCs = assay: Hematopoietic differentiation of H1 hESCs in chemically defined conditions with TGFβ inhibitor, flow cytometry
# Experimental: as §1, with “analysis. Flow Cytometry was conducted using the using a FACSCalibur flow cytometer and following antibodies: CD31-FITC (clone WM59), CD34-FITC (8G12), CD41a-FITC/APC (clone HIPS), CD43-FITC/PE/APC (clone 1G10), CD45-APC (clone HI30), CD73-FITC/PE (clone AD2), CD144-FITC/PE/AlexaFluor647 (clone 55-7H1), CD235a-FITC/PE/APC (clone GA-R2), KDR-PE/AlexaFluor647 (clone 89106), PDGFRα-PE (clone aR1) (BD Biosciences), TRA-1-85-FITC/PE (clone TRA-1-85), and APLNR-APC (clone 72133) (R&D Systems). Sorting was conducted on a FACS Aria, as described previously 46. The purity of isolated populations was 92-95%. Recent studies have shown that adding TGF-β inhibitors after mesoderm specification but before endothelial development increases definitive hematopoietic differentiation.” for “analysis.”
Compound,capacity of CD43+ cells to generate CD5+CD7+ lymphoid progenitors [1],progression toward CD4+CD8+ T lymphoid cells ([1]; week 3),hematopoietic differentiation potential of CB hiPSCs (hESCs [2]; cord blood mononuclear cell-derived hiPSCs),"percentage of KDRhiAPLNR+PDGFRalphalo/− HVMPs cells (hESCs [2]; day 4, TenC compared with ColIV)","population of total CD144+ cells (HEPs, non-HEPs, AHPs) (hESCs [2]; day 5, compared to cultures differentiated on ColIV)","CD43+ hematopoietic progenitors expansion (hESCs [2]; day 8, TenC compared to ColIV)","APLNR+PDGFRalpha+ cells (hESCs [2]; days 2 and 3, TenC compared with ColIV)",GEMNI-CFC potential of cultures (hESCs [3]),"CFC potential of cultures (hESCs [3]; 3 experiments, p<0.01)",MB and HB colonies (hESCs [4]),"development of PDGFRalpha-positive mesoderm cells (H1 hESCs; 10 μM added from day 2 to day 4, read on day 3)","CD31+ differentiation (H1 hESCs; 10 μM added from day 2 to day 4, read on day 4)","CD43+ population (H1 hESCs; 10 μM added from day 2 to day 4, read on day 9)","CD43+ hematopoietic progenitors (H1 hESCs; added from day 2 to day 4 only, day 8)","endothelial progenitors (H1 hESCs; added from day 2 to day 4 only, days 4 and 5)"
TenC: human Tenascin C extracellular matrix protein (GenBank CAA55309.1; Millipore CC065) used as culture substrate,had a capacity,observed only from CD43^+ cells generated on TenC,restored hematopoietic differentiation potential of CB hiPSCs to the level seen with hESCs and FB hiPSCs,consistently higher,larger population,expanded significantly more,significantly higher,significantly greater,higher CFC potential,significantly higher,,,,,
NC(=O)c1ccc(-c2nc(-c3ccc4c(c3)OCO4)c(-c3ccccn3)[nH]2)cc1 [SB-431542],,,,,,,,,,,significantly decreases,increases,continues to increase,significant increase,increases
